In US9546129B2, “DTPA prodrugs, compositions thereof, and methods of using the same” (priority 2012, dated 2017):

Key:
[1] = comparison values; cited from earlier work
[2] = Stability study in water (pH and precipitation of solubility samples); assay type: physicochemical; details: for Precipitation on storage (observation): room temperature, 4° C., −20° C.
Experimental: Method 2 was used to prepare the C2E2 for the dosing formulations. Specifically, Lots 050 and 005-2 were prepared using Method 2, whereas the Reference standard and MTD Lot were prepared using Method 1. For the dosing formulations, de-ionized water (DI water tap in room 18/19) was used with the C2E2 prepared using Method 2. The dosing formulations were compared with C2E2 formulations prepared using Milli-Q water. The pH of each sample was recorded and the values are listed below in Table 2.
In order to re-create the unusual solutions, 1-mL samples of C2E2 (Lots 005-2 and 050; MTD Lot; and Reference std) were made at concentrations of 100 mg/mL in Milli-Q water. A set of samples was stored at room temperature, in the refrigerator (4° C.), and in the −20° C. freezer. […] Storage at 4° C. exacerbates the precipitation of Lot 050. After 8 days, both the Reference Standard and Lot 050 have significant amounts of solid detected at 4° C. and room temperature and crystals have started to form. […] While not wishing to be bound to any particular theory, this is likely because more impurities increase the solubility.

[3] = test system: ^241Am contaminated rats; assay: Once vs twice daily dosing ^241Am decorporation study in rats; assay type: in vivo, Sprague Dawley rat; details: Zn-DTPA 13.3 mg/kg intravenous daily x5, male rats, seven days after IM ^241Am
Experimental: The animal study was conducted according to a protocol approved by The University of North Carolina at Chapel Hill Institutional Animal Care and Use Committee. Sixteen male Sprague Dawley rats were contaminated with ^241Am(NO3)3 (0.25 μCi) by intramuscular injection (0.1 mL, 0.1 M HNO3) into the right hind leg, under isoflurane anesthesia. Immediately after injection, body weights were recorded (Day 0 weight) and animals placed in individual metabolic cages. The 16 rats were assigned to four groups; untreated control, 5 daily oral gavage doses of 600 mg/kg C2E2 once daily, 5 days of oral gavage treatment of 300 mg/kg C2E2 twice daily or 5 daily intravenous doses of Zn-DTPA solution (13.3 mg/kg) via a jugular vein catheter. The C2E2 was from Lot 050 obtained using Method 2. The C2E2 dosing solution utilized was a 10% w/w solution in water. […] Excreted urine and feces were collected at 2, 4, 8, 10, 12, 14, 18, 20 and 24 hours after the first dose and daily for the remainder of the study. The samples were transferred to 20 mL scintillation vials, weighed and placed in a gamma counter (Wizard2 2480, Perkin Elmer) for detection of ^241Am gamma activity. In addition, following necropsy, selected tissues were removed, weighed and placed in a gamma counter (Wizard2 2480, Perkin Elmer) for detection of ^241Am gamma activity. The total amount of ^241Am administered to the animals was determined by quantifying the 59.7 keV photons emitted by ^241Am in duplicate aliquots (100 μL) of the injection solution using a gamma counter (wizard series, Perkin-Elmer). A counting window from 40-80 keV and a 60-second counting time were used for acquisition and each reading was corrected for background at acquisition. All experimental tissues and samples were counted using the same gamma counter and protocol. For all the samples, ^241Am content was expressed as a percentage of the initial dose. The femur from the leg opposite to the injection site was scaled by a factor of 20 to estimate total skeletal ^241Am burden.

[4] = Polymorph stability (DSC, competitive ripening, storage); assay type: physicochemical; details: higher melting point, lower solubility
Experimental: Samples of C2E2 (˜5 mg) were crimped and evaluated by DSC over a range of 25° C. to 320° C. with a heating rate of 10.00° C./min. A sample was also cycled three times from 25 to 150° C. with a heating rate of 10° C./min and a cooling rate of 5° C./min. Both the MTD Lot and the Reference Standard show a melting point near 120° C. Lot 050 has a melting point of about 140° C.
50 mg each of Lot 050 and the Reference standard were combined in 500 μL of water and stirred at room temperature overnight. After stirring, the remaining solid was filtered from the liquid, allowed to dry and analyzed by DSC.

[5] = Protonation constants by potentiometric titration; assay type: physicochemical; details: 5 mM ligand in 0.15 M KCl
Experimental: The protonation constants for C2E2 were determined by preparing a 5 mM solution of free ligand in 0.15 M KCl. The constants were calculated from three replicates, with each experiment consisting of a titration with acid, followed by a titration with base. After each addition of titrant, a 30 second equilibration time passed before pH measurement with a Seven Easy pH meter and (Ag/AgCl reference) glass electrode (Metler Tolledo). At the end of the titrations, the presence of C2E2 was confirmed by HPLC-CAD. Evaluation of the titration curve for C2E2 (FIG. 31) identified 6 pKa values that correspond with the three tertiary amines and three carboxylic acids. The values were determined by refinement using […] software. The pKa values determined for C2E2 are consistent with DTPA analogues previously investigated for use as MRI contrast agents with two carboxylic acids are functionalized such as DTPA-BMA and DTPA-BBA (Rizkalla, E. N., et al., Inorganic Chemistry, 32, 582-586, (1993) and Geraldes C. F., et al., Journal of the Chemical Society-Dalton Transactions, 327-335 (1995)).

[6] = test system: ^241Am contaminated rats; assay: C2E2 single dose ^241Am decorporation in rats (IM contamination); assay type: in vivo, Sprague Dawley rat; details: DTPA 14 mg/kg IV, ad lib; single dose 24 h after IM ^241Am, 7 days, female rats
Experimental: This study was to assess the efficacy of a single oral gavage dose of C2E2 in ^241Am contaminated rats. A 200 μL aliquot was withdrawn from a stock solution of ^241Am nitrate (0.1 mCi in 5 mL 1 M HNO3), evaporated to dryness, dissolved in concentrated HNO3 (15 M, 5 mL) then evaporated to dryness and dissolved in dilute HNO3 (0.1 M, 8 mL) to form the injection solution. Groups of 4 female Sprague-Dawley rats were contaminated with 250 nCi of ^241Am nitrate by IM injection ([…]) then were administered single doses of C2E2 by gavage at 200, 600, or 1000 mg/kg under ad lib feeding conditions utilizing a 10% w/w solution in sterile water (dose volumes were 2, 6, and 10 mL/kg, for the 200, 600, and 1000 mg/kg doses, respectively). For the fasted component of the study, the animals were fasted 24 hours before treatment then for 2 hours post drug administration. Control groups with ad lib access to food and water were either untreated or administered an IV dose of the calcium salt of DTPA (Ca-DTPA) at 14 mg/kg (target dose volume of 0.7 mL/kg and concentration of 20 mg/mL). Treatment was administered 1 day after contamination. All animals were euthanized 7 days after contamination and the following tissues were collected: liver, both kidneys, both femurs as well as the ipsilateral and the contralateral hind leg muscle tissue and the pelt from the injection site. Urine and feces were collected from the time of contamination through euthanasia. Cage washings were also collected at the end of the study and considered part of total urine collection. Two aliquots (100 μL) of the injection solution were removed and ^241Am gamma activity was determined using radiomatic detection. The average of these standards is the injected dose used for all animals. All tissues and samples were counted in a similar manner. Americium content was expressed as a percentage of the injected dose. Overall recovery of radioactivity across all groups in this study was approximately 90%. […] The primary route by which both DTPA and C2E2 enhanced elimination of ^241Am occurred was by urinary clearance. […] Fecal clearance of ^241Am was not altered by feeding status, an observation that is consistent with the similar liver burden between the two groups at the end of the study. […] As with DTPA, enhanced decorporation by C2E2 occurred through enhanced urinary clearance.
Male and female Sprague Dawley rats (n=4/gender/dose) were administered single oral doses of diethylenetriaminepentaacetic acid diethyl ester (C2E2) by gavage 24 hours after intramuscular contamination with ^241Am(NO3)3 (250 nCi) under ad libitum and fasted conditions. Animals received single oral nominal doses of 200, 600, or 1000 mg/kg C2E2. Untreated animals and animals treated with an intravenous dose of Ca-DTPA ([…]) 24 hours after contamination served as controls; only ad libitum conditions were used for control animals. Total radionuclide decorporation and radionuclide tissue burden were evaluated seven days after contamination.
Male and female Sprague Dawley rats were contaminated with ^241Am(NO3)3 (0.25 μCi) by intramuscular injection (0.1 mL, 0.1 M HNO3) into the right hind leg, under isoflurane anesthesia. Immediately after injection, body weights were recorded (Day 0 weight) and animals were placed in individual metabolic cages.
Approximately eight hours after contamination—and 16 hours before test article administration—rats assigned to the Fasted groups had access to food restricted by removing the food chamber from their metabolic cages and collecting all loose chow from their housing chambers. Food chambers were replaced 1 hour after oral gavage treatment, restoring access to food. At all other times all animals had ad libitum access to food.
Male and female Sprague-Dawley rats assigned to test groups each received a single oral gavage dose of 0, 200, 600, or 1000 mg/kg of C2E2 utilizing a 10% w/w solution in water 24 hours after contamination. […]

[7] = Body weights and clinical observations in the rat single dose decorporation study; assay type: in vivo, Sprague Dawley rat; details: iv Ca-DTPA 14 mg/kg, ad libitum; for Mean body weight: in g (unit assumed)
Text: Each rat was weighed at contamination (Day 0) and the terminal body weight (Day 7) was taken at necropsy.

Compound: O=C(O)CN(CCN(CC(=O)O)CC(=O)O)CC(=O)O [EDTA]
- Stability of the gadolinium complex, log K [1]: 17.0

Compound: CCOC(=O)CN(CCN(CCN(CC(=O)O)CC(=O)OCC)CC(=O)O)CC(=O)O [MTD Lot, 6,9-bis(carboxymethyl)-3-(2-ethoxy-2-oxoethyl)-11-oxo-12-oxa-3,6,9-triazatetradecan-1-oic acid]
- pH of formulations prepared using Milli-Q water ([2]; 100 mg/mL): 2.35
- Precipitation on storage (observation) ([2]; 100 mg/mL in Milli-Q water): do not come out of solution

Compound: O=C([O-])CN(CCN(CC(=O)[O-])CC(=O)[O-])CCN(CC(=O)[O-])CC(=O)[O-].[Na+].[Na+].[Na+].[Zn+2] [i.v. Control, reference compound]
- Total Decorporation [3]: 54.0 ± 3.9 % of injected dose

Compound: CCOC(=O)CN(CCN(CCN(CC(=O)O)CC(=O)OCC)CC(=O)O)CC(=O)O [Reference Standard, 6,9-bis(carboxymethyl)-3-(2-ethoxy-2-oxoethyl)-11-oxo-12-oxa-3,6,9-triazatetradecan-1-oic acid]
- Time at which material starts to precipitate ([2]; 100 mg/mL in Milli-Q water, regardless of storage temperature): ≤ 24 h
- pH of formulations prepared using Milli-Q water ([2]; 100 mg/mL, listed as Purified C2E2 (Reference std)): 2.43

Compound: CCOC(=O)CN(CCN(CCN(CC(=O)O)CC(=O)OCC)CC(=O)O)CC(=O)O [Lot 050, 6,9-bis(carboxymethyl)-3-(2-ethoxy-2-oxoethyl)-11-oxo-12-oxa-3,6,9-triazatetradecan-1-oic acid]
- pH of formulations prepared using de-ionized water ([2]; 20 mg/mL): 3.04
- pH of formulations prepared using de-ionized water ([2]; 60 mg/mL): 2.93
- pH of formulations prepared using Milli-Q water ([2]; 100 mg/mL): 2.60
- pH of formulations prepared using de-ionized water ([2]; 100 mg/mL): 2.93
- Precipitation on storage (observation) ([2]; 100 mg/mL in Milli-Q water): begins to come out of solution after three days
- Relative stability of polymorph [4]: most stable

Compound: CCOC(=O)CN(CCN(CCN(CC(=O)O)CC(=O)O)CC(=O)O)CC(=O)O [C2E1]
- PKa2 [5]: 2.99 ± 0.05
- pKa1 [5]: 6.35
- pKa3 [5]: 1.72 ± 1.5
- pKa4 [5]: 1.18 ± 0.45
- pKa5 [5]: <1.5
- pKa6 [5]: <1.5

Compound: diethylenetriamine pentaacetic acid [DTPA]
- Cage Wash ^241Am [6]: 3.6 ± 0.8%
- Feces ^241Am [6]: 10.3 ± 1.7%
- Liver burden [6]: 12.3 ± 1.2 % injected
- Total Decorporation [6]: 36.1 ± 4.6 % injected
- Urine ^241Am [6]: 22.1 ± 2.6%
- Stability of the gadolinium complex, log K [1]: 22.5

Compound: O=C([O-])CN(CCN(CC(=O)[O-])CC(=O)[O-])CCN(CC(=O)[O-])CC(=O)[O-].[Ca+2].[Na+].[Na+].[Na+] [Ca-DTPA, reference compound]
- Mean Percentage Body Weight Change ([7]; Female): −0.1 ± 1.9%
- Mean Percentage Body Weight Change ([7]; Male): 4.5 ± 6.1%
- Mean body weight ([7]; female rats, Day 0): 273.6 ± 7.7
- Mean body weight ([7]; female rats, Day 7 (terminal)): 273.3 ± 11.2
- Mean body weight ([7]; male rats, Day 0): 301.0 ± 4.0
- Mean body weight ([7]; male rats, Day 7 (terminal)): 314.6 ± 20.4

Compound: CCOC(=O)CN(CCN(CCN(CC(=O)O)CC(=O)OCC)CC(=O)O)CC(=O)O [Lot 005-2, 6,9-bis(carboxymethyl)-3-(2-ethoxy-2-oxoethyl)-11-oxo-12-oxa-3,6,9-triazatetradecan-1-oic acid]
- pH of formulations prepared using Milli-Q water ([2]; 100 mg/mL): 2.54
- Precipitation on storage (observation) ([2]; 100 mg/mL in Milli-Q water): do not come out of solution
